# Assay results: ChEMBL document CHEMBL1201862, “PubChem BioAssay data set” (2004)
#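 Compound exposure: 48 hours, 5 concentrations, 96-well plates. The concentration for 50% growth inhibition is given as GI50.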 Activity calls are given as the source filed them. Rule as the data show it: active = GI50 up to about 1.1 µM and inactive = higher.
# What was measured:
# Assay in all cases: DTP human tumour cell line panel, 48 h
# NCI-H522 = test system: NCI-H522
# CAKI-1 = test system: CAKI-1
# M14 = test system: M14
# PC-3 = test system: PC-3
# UO-31 = test system: UO-31
# TK-10 = test system: TK-10
# UACC-257 = test system: UACC-257
# OVCAR-8 = test system: OVCAR-8
# HT-29 = test system: HT-29
# HCT-15 = test system: HCT-15
# Malme-3M = test system: Malme-3M
# NCI/ADR-RES = test system: NCI/ADR-RES
# UACC-62 = test system: UACC-62
# LOX IMVI = test system: LOX IMVI
# HL-60 = test system: HL-60
# EKVX = test system: EKVX
# BT-549 = test system: BT-549
# SK-MEL-28 = test system: SK-MEL-28
# U-251 = test system: U-251
# 786-0 = test system: 786-0
# OVCAR-4 = test system: OVCAR-4
# OVCAR-5 = test system: OVCAR-5
# NCI-H23 = test system: NCI-H23
# NCI-H460 = test system: NCI-H460
# A498 = test system: A498
# SK-MEL-2 = test system: SK-MEL-2
# Hs-578T = test system: Hs-578T
# T47D = test system: T47D
# MDA-MB-435 = test system: MDA-MB-435
# SF-268 = test system: SF-268
# CCRF-CEM = test system: CCRF-CEM
# MDA-N = test system: MDA-N
# ACHN = test system: ACHN
# MCF7 = test system: MCF7
# IGROV-1 = test system: IGROV-1
# SN12C = test system: SN12C
# SW-620 = test system: SW-620
# MDA-MB-231 = test system: MDA-MB-231
# DU-145 = test system: DU-145
# HCT-116 = test system: HCT-116
# OVCAR-3 = test system: OVCAR-3
# HOP-92 = test system: HOP-92
# SNB-19 = test system: SNB-19
# RPMI-8226 = test system: RPMI-8226
# COLO 205 = test system: COLO 205
# RXF 393 = test system: RXF 393
# MOLT-4 = test system: MOLT-4
# SK-OV-3 = test system: SK-OV-3
# KM12 = test system: KM12
# K562 = test system: K562
# HOP-62 = test system: HOP-62
# A549 = test system: A549
# SNB-75 = test system: SNB-75
# SK-MEL-5 = test system: SK-MEL-5
# SF-295 = test system: SF-295
# NCI-H226 = test system: NCI-H226
compound,measurement,setting,value
OC(c1ccc(F)cc1)C(F)(F)c1nc(-c2ccccc2)no1 (stereo not given),GI50,NCI-H522,2.44 µM (inactive)
same,GI50,CAKI-1,27 µM (inactive)
same,GI50,M14,17.9 µM (inactive)
same,GI50,PC-3,21.8 µM (inactive)
same,GI50,UO-31,19 µM (inactive)
same,GI50,TK-10,38.3 µM (inactive)
same,GI50,UACC-257,19.6 µM (inactive)
same,GI50,OVCAR-8,> 100 µM (inactive)
same,GI50,HT-29,17.6 µM (inactive)
same,GI50,HCT-15,23.9 µM
same,GI50,Malme-3M,13.9 µM (inactive)
same,GI50,NCI/ADR-RES,30.6 µM (inactive)
same,GI50,UACC-62,18.2 µM (inactive)
same,GI50,LOX IMVI,86.5 µM (inactive)
same,GI50,HL-60,22.5 µM (inactive)
same,GI50,EKVX,22.9 µM (inactive)
same,GI50,BT-549,17.8 µM (inactive)
same,GI50,SK-MEL-28,21.1 µM (inactive)
same,GI50,U-251,0.126 µM (active)
same,GI50,786-0,20.1 µM (inactive)
same,GI50,OVCAR-4,20.7 µM (inactive)
same,GI50,OVCAR-5,18.1 µM (inactive)
same,GI50,NCI-H23,26.1 µM (inactive)
same,GI50,NCI-H460,0.0632 µM (active)
same,GI50,A498,22.6 µM (inactive)
same,GI50,SK-MEL-2,18.9 µM (inactive)
same,GI50,Hs-578T,30.5 µM (inactive)
same,GI50,T47D,23.7 µM (inactive)
same,GI50,MDA-MB-435,19.4 µM (inactive)
same,GI50,SF-268,25.3 µM (inactive)
same,GI50,CCRF-CEM,14.3 µM (inactive)
same,GI50,MDA-N,23.8 µM (inactive)
same,GI50,ACHN,27.2 µM (inactive)
same,GI50,MCF7,23.7 µM (inactive)
same,GI50,IGROV-1,> 100 µM (inactive)
same,GI50,SN12C,21.6 µM (inactive)
same,GI50,SW-620,19.3 µM (inactive)
same,GI50,MDA-MB-231,2.43 µM (inactive)
same,GI50,DU-145,21.2 µM (inactive)
same,GI50,HCT-116,19.1 µM (inactive)
same,GI50,OVCAR-3,16.4 µM (inactive)
same,GI50,HOP-92,23.7 µM (inactive)
same,GI50,SNB-19,36.4 µM (inactive)
C#CCOC(=O)C(N)C(C)O (stereo not given),GI50,NCI-H522,> 100 µM (inactive)
same,GI50,CAKI-1,> 100 µM (inactive)
same,GI50,M14,> 100 µM (inactive)
same,GI50,PC-3,> 100 µM (inactive)
same,GI50,UO-31,> 100 µM (inactive)
same,GI50,TK-10,> 100 µM (inactive)
same,GI50,UACC-257,> 100 µM (inactive)
same,GI50,OVCAR-8,> 100 µM (inactive)
same,GI50,RPMI-8226,> 100 µM (inactive)
same,GI50,HT-29,> 100 µM (inactive)
same,GI50,Malme-3M,> 100 µM (inactive)
same,GI50,NCI/ADR-RES,> 100 µM (inactive)
same,GI50,UACC-62,> 100 µM (inactive)
same,GI50,LOX IMVI,> 100 µM (inactive)
same,GI50,HL-60,> 100 µM (inactive)
same,GI50,COLO 205,> 100 µM (inactive)
same,GI50,EKVX,> 100 µM (inactive)
same,GI50,BT-549,> 100 µM (inactive)
same,GI50,SK-MEL-28,> 100 µM (inactive)
same,GI50,RXF 393,> 100 µM (inactive)
same,GI50,U-251,> 100 µM (inactive)
same,GI50,786-0,> 100 µM (inactive)
same,GI50,MOLT-4,> 100 µM (inactive)
same,GI50,SK-OV-3,> 100 µM (inactive)
same,GI50,OVCAR-5,> 100 µM (inactive)
same,GI50,KM12,> 100 µM (inactive)
same,GI50,NCI-H23,> 100 µM (inactive)
same,GI50,A498,> 100 µM (inactive)
same,GI50,K562,> 100 µM (inactive)
same,GI50,SK-MEL-2,> 100 µM (inactive)
same,GI50,Hs-578T,> 100 µM (inactive)
same,GI50,T47D,> 100 µM (inactive)
same,GI50,MDA-MB-435,> 100 µM (inactive)
same,GI50,SF-268,> 100 µM (inactive)
same,GI50,CCRF-CEM,> 100 µM (inactive)
same,GI50,MDA-N,> 100 µM (inactive)
same,GI50,ACHN,> 100 µM (inactive)
same,GI50,MCF7,> 100 µM (inactive)
same,GI50,IGROV-1,> 100 µM (inactive)
same,GI50,HOP-62,> 100 µM (inactive)
same,GI50,SN12C,> 100 µM (inactive)
same,GI50,SW-620,> 100 µM (inactive)
same,GI50,MDA-MB-231,> 100 µM (inactive)
same,GI50,DU-145,> 100 µM (inactive)
same,GI50,A549,> 100 µM (inactive)
same,GI50,SNB-75,> 100 µM (inactive)
same,GI50,HCT-116,> 100 µM (inactive)
same,GI50,OVCAR-3,> 100 µM (inactive)
same,GI50,HOP-92,> 100 µM (inactive)
same,GI50,SK-MEL-5,> 100 µM (inactive)
same,GI50,SF-295,> 100 µM (inactive)
same,GI50,NCI-H226,> 100 µM (inactive)
